Earlier results in patent US20070298029A1, “Treatment of Neurodegenerative Diseases by the Use of Degs Inhibitors” (priority 2004, published 2007).

Target: T1, dihydroceramide desaturase (Rattus norvegicus, UniProt Q5XIF5)
T1 sequence (Q5XIF5 1-323): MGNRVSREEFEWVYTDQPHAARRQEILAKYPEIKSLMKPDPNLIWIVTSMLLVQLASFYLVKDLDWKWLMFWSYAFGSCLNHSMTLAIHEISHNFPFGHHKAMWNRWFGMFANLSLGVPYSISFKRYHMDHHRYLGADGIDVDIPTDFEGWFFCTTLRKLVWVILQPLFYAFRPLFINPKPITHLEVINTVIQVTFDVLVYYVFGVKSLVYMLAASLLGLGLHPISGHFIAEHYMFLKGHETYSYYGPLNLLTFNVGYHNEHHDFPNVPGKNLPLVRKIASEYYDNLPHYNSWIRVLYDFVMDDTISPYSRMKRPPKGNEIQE
Details: competitive inhibitor

CCCCCCCCCCCCCC1=C([C@H](O)[C@@H](CO)NC(=O)CCCCCCC)C1 [GT11, N-[(1R,2S)-2-hydroxy-1-hydroxymethyl-2-(2-tridecyl-1-cyclopropenyl)ethyl]octanamide]
Ki: 6 µM
